Laboratory results as given in patent publication US9133104B2 (Chroma Therapeutics Ltd., priority 2005, dated 2015).

Assays:
[1] = biological target: T1, histone deacetylase activity (HeLa nuclear extract); test: HDAC fluorescent activity assay (Biomol Fluor de Lys), HeLa nuclear extract; assay type: biochemical; details: Fluor de Lys substrate, IC50 range
T1 construct: Histone deacetylase activity from crude nuclear extract derived from HeLa cells was used for screening
Protocol: The ability of compounds to inhibit histone deacetylase activities was measured using the commercially available HDAC fluorescent activity assay from Biomol. In brief, the Fluor de Lys™ substrate, a lysine with an epsilon-amino acetylation, is incubated with the source of histone deacetylase activity (HeLa nuclear extract) in the presence or absence of inhibitor. Deacetylation of the substrate sensitises the substrate to Fluor de Lys™ developer, which generates a fluorophore. Thus, incubation of the substrate with a source of HDAC activity results in an increase in signal that is diminished in the presence of an HDAC inhibitor.
Data are expressed as a percentage of the control, measured in the absence of inhibitor, with background signal being subtracted from all samples, as follows:— % activity=((S^i−B)/(S^o−B))×100 where S^i is the signal in the presence of substrate, enzyme and inhibitor, S^o is the signal in the presence of substrate, enzyme and the vehicle in which the inhibitor is dissolved, and B is the background signal measured in the absence of enzyme.
IC50 values were determined by non-linear regression analysis, after fitting the results of eight data points to the equation for sigmoidal dose response with variable slope (% activity against log concentration of compound), using Graphpad Prism software.
Histone deacetylase activity from crude nuclear extract derived from HeLa cells was used for screening. The preparation, purchased from 4C (Seneffe, Belgium), was prepared from HeLa cells harvested whilst in exponential growth phase. The nuclear extract is prepared according to Dignam JD1983 Nucl. Acid. Res. 11, 1475-1489, snap frozen in liquid nitrogen and stored at −80° C. The final buffer composition was 20 mM Hepes, 100 mM KCl, 0.2 mM EDTA, 0.5 mM DTT, 0.2 mM PMSF and 20% (v/v) glycerol.

Hela cancer cell line = test: Cell inhibition assay (SRB cell viability), Hela; assay type: cell-based; details: Homo sapiens, HeLa, 72 h, Hela cells, IC50 range
Protocol: (§1) The corresponding cancer cell lines (Hela, U937 and HUT) growing in log phase were harvested and seeded at 1000 cells/well (200 ul final volume) into 96-well tissue culture plates. Following 24 h of cell growth cells were treated with compounds (final concentration of 20 uM). Plates were then re-incubated for a further 72 h before a sulphorhodamine B (SRB) cell viability assay was conducted according to Skehan 1990 J Natl Canc Inst 82, 1107-1112.
(§2) Data were expressed as a percentage inhibition of the control, measured in the absence of inhibitor, as follows:— % inhibition=100−((S^i/S^o)×100) where S^i is the signal in the presence of inhibitor and S^o is the signal in the presence of DMSO. IC50 values were determined by non-linear regression analysis, after fitting the results of eight data points to the equation for sigmoidal dose response with variable slope (% activity against log concentration of compound), using Graphpad Prism software. […] NT=Not tested

U937 cancer cell line = test: Cell inhibition assay (SRB cell viability), U937; assay type: cell-based; details: Homo sapiens, U-937, U937 cells, 72 h, IC50 range
Protocol: as §1, §2

HUT cancer cell line = test: Cell inhibition assay (SRB cell viability), HUT; assay type: cell-based; details: HUT cells, 72 h, IC50 range
Protocol: as §1, §2

Row | IC50 [1] | IC50 (Hela cancer cell line) | IC50 (U937 cancer cell line) | IC50 (HUT cancer cell line) | SMILES
1 | 0.101 to 1 µM | > 3.3 µM | > 3.3 µM | > 3.3 µM | O=C(CCCCCCC(=O)N1Cc2[nH]c3ccccc3c2C[C@H]1C(=O)N[C@H](C(=O)O)c1ccccc1)NO [Compound 4, (S)-{[(S)-2-(7-Hydroxycarbamoyl-heptanoyl)-2,3,4,9-tetrahydro-1H-beta-carboline-3-carbonyl]-amino}-phenyl-acetic acid]
2 | > 1 µM | > 3.3 µM | 0.33 to 3.3 µM | > 3.3 µM | O=C(NO)c1cc2ccc(CNc3cccc(CN[C@H](C(=O)OC4CCCC4)c4ccccc4)c3)cc2s1 [Compound 130, (S)-{3-[(2-Hydroxycarbamoyl-benzo[b]thiophen-6-ylmethyl)-amino]-benzyl-amino}-phenyl-acetic acid cyclopentyl ester]
3 | 0.101 to 1 µM | > 3.3 µM | 0.33 to 3.3 µM | 0.33 to 3.3 µM | O=C(CCCCCCC(=O)Nc1ccc(C(=O)N[C@H](C(=O)OC2CCCC2)c2ccccc2)cc1)NO [Compound 17, (S)-[4-(7-Hydroxycarbamoyl-heptanoylamino)-benzoylamino]-phenyl-acetic acid cyclopentyl ester]
4 | 0.101 to 1 µM | > 3.3 µM | 0.33 to 3.3 µM | 0.33 to 3.3 µM | CCOC(=O)[C@H](Cc1ccccc1)NC(=O)[C@@H]1Cc2ccccc2CN1C(=O)CCCCCCC(=O)NO [Compound 47, (S)-2-{[(S)-2-(7-Hydroxycarbamoyl-heptanoyl)-1,2,3,4-tetrahydro-isoquinoline-3-carbonyl]-amino}-3-phenyl-propionic acid ethyl ester]
5 | > 1 µM | > 3.3 µM | 0.33 to 3.3 µM | 0.33 to 3.3 µM | O=C(CCCCCCC(=O)N1Cc2ccccc2C[C@H]1C(=O)N[C@@H](Cc1ccccc1)C(=O)O)NO [Compound 48, (S)-2-{[(S)-2-(7-Hydroxycarbamoyl-heptanoyl)-1,2,3,4-tetrahydro-isoquinoline-3-carbonyl]-amino}-3-phenyl-propionic acid]
6 | 0.101 to 1 µM | > 3.3 µM | > 3.3 µM | 0.33 to 3.3 µM | O=C(CCCCCCC(=O)N1CCc2c([nH]c3ccc(OCC(=O)N[C@H](C(=O)OC4CCCC4)c4ccccc4)cc23)C1)NO [Compound 24, (S)-{2-[2-(7-Hydroxycarbamoyl-heptanoyl)-2,3,4,9-tetrahydro-1H-beta-carbolin-6-yloxy]-acetylamino}-phenyl-acetic acid cyclopentyl ester]
7 | 0.101 to 1 µM | > 3.3 µM | < 0.33 µM | 0.33 to 3.3 µM | CC(C)C[C@H](NCc1ccc(NC(=O)CCCCCCC(=O)NO)cc1)C(=O)OC1CCCC1 [Compound 85, (S)-2-[4-(7-Hydroxycarbamoyl-heptanoylamino)-benzylamino]-4-methyl-pentanoic acid cyclopentyl ester]
8 | < 0.1 µM | 0.33 to 3.3 µM | < 0.33 µM | 0.33 to 3.3 µM | O=C(CCCCCCC(=O)Nc1cccc(CN[C@H](C(=O)OC2CCCC2)c2ccccc2)c1)NO [Compound 36, (S)-[3-(7-Hydroxycarbamoyl-heptanoylamino)-benzylamino]-phenyl-acetic acid cyclopentyl ester]
9 | 0.101 to 1 µM | 0.33 to 3.3 µM | 0.33 to 3.3 µM | 0.33 to 3.3 µM | O=C(CCCCCCC(=O)N1CCc2c([nH]c3ccccc23)C1C(=O)NC(C(=O)OC1CCCC1)c1ccccc1)NO [Compound 9, (S)-{[2-(7-Hydroxycarbarnoyl-heptanoyl)-2,3,4,9-tetrahydro-1H-beta-carboline-1-carbonyl]-amino}-phenyl-acetic acid cyclopentyl ester]
10 | < 0.1 µM | 0.33 to 3.3 µM | < 0.33 µM | < 0.33 µM | O=C(CCCCCCC(=O)Nc1cccc(OCCCN[C@H](C(=O)OC2CCCC2)c2ccccc2)c1)NO [Compound 77, (S)-{3-[3-(7-Hydroxycarbamoyl-heptanoylamino)-phenoxy]-propylamino}-phenyl-acetic acid cyclopentyl ester]
11 | > 1 µM | > 3.3 µM | > 3.3 µM | > 3.3 µM | O=C(CCCCCCC(=O)Nc1ccccc1CN[C@H](C(=O)O)c1ccccc1)NO [Compound 41, (S)-[2-(7-Hydroxycarbamoyl-heptanoylamino)-benzylamino]-phenyl-acetic acid]
12 | 0.101 to 1 µM | > 3.3 µM | > 3.3 µM | > 3.3 µM | O=C(CCCCCCC(=O)Nc1ccc(S(=O)(=O)N[C@H](C(=O)O)c2ccccc2)cc1)NO [Compound 23, (S)-[4-(7-Hydroxycarbamoyl-heptanoylamino)-benzenesulfonylamino]-phenyl-acetic acid]
13 | 0.101 to 1 µM | 0.33 to 3.3 µM | 0.33 to 3.3 µM | 0.33 to 3.3 µM | O=C(CCCCCCC(=O)Nc1cccc(CN[C@@H](Cc2ccccc2)C(=O)OC2CCCC2)c1)NO [Compound 28, (S)-2-[3-(7-Hydroxycarbamoyl-heptanoylamino)-benzylamino]-3-phenyl-propionic acid cyclopentyl ester]
14 | 0.101 to 1 µM | > 3.3 µM | 0.33 to 3.3 µM | > 3.3 µM | O=C(Cc1ccc(OCCCC(=O)N[C@@H](Cc2ccccc2)C(=O)OC2CCCC2)cc1)Nc1ccc2sc(C(=O)NO)cc2c1 [Compound 102, (S)-2-(4-{4-[(2-Hydroxycarbamoyl-benzo[b]thiophen-5-ylcarbamoyl)-methyl]-phenoxy}-butyrylamino)-3-phenyl-propionic acid cyclopentyl ester]
15 | 0.101 to 1 µM | > 3.3 µM | 0.33 to 3.3 µM | 0.33 to 3.3 µM | O=C(CCCCCCC(=O)N1Cc2[nH]c3ccccc3c2C[C@@H]1C(=O)N[C@H](C(=O)OC1CCCC1)c1ccccc1)NO [Compound 1, (S)-{[(R)-2-(7-Hydroxycarbamoyl-heptanoyl)-2,3,4,9-tetrahydro-1H-beta-carboline-3-carbonyl]-amino}-phenyl-acetic acid cyclopentyl ester]
16 | > 1 µM | > 3.3 µM | 0.33 to 3.3 µM | 0.33 to 3.3 µM | CCOC(=O)[C@H](CC(C)C)NC(=O)[C@@H]1Cc2ccccc2CN1C(=O)CCCCCCC(=O)NO [Compound 50, (S)-2-{[(S)-2-(7-Hydroxycarbamoyl-heptanoyl)-1,2,3,4-tetrahydro-isoquinoline-3-carbonyl]-amino}-4-methyl-pentanoic acid ethyl ester]
17 | < 0.1 µM | 0.33 to 3.3 µM | < 0.33 µM | 0.33 to 3.3 µM | O=C(CCCCCCC(=O)Nc1cccc(OCCN[C@@H](Cc2ccccc2)C(=O)OC2CCCC2)c1)NO [Compound 73, (S)-2-{2-[3-(7-Hydroxycarbamoyl-heptanoylamino)-phenoxy]-ethylamino}-3-phenyl-propionic acid cyclopentyl ester]
18 | < 0.1 µM | > 3.3 µM | 0.33 to 3.3 µM | 0.33 to 3.3 µM | O=C(CCCCCCNC(=O)c1cc2cc(CCC(=O)N[C@@H](Cc3ccccc3)C(=O)OC3CCCC3)ccc2[nH]1)NO [Compound 100, (S)-2-{3-[2-(6-Hydroxycarbamoyl-hexylcarbamoyl)-1H-indol-5-yl]-propionylamino}-3-phenyl-propionic acid cyclopentyl ester]
19 | < 0.1 µM | 0.33 to 3.3 µM | < 0.33 µM | < 0.33 µM | O=C(CCCCCCC(=O)Nc1cccc(OCCCN[C@@H](Cc2ccccc2)C(=O)OC2CCCC2)c1)NO [Compound 75, (S)-2-{3-[3-(7-Hydroxycarbamoyl-heptanoylamino)-phenoxy]-propylamino}-3-phenyl-propionic acid cyclopentyl ester]

Row | SMILES | IC50 [1] | IC50 (Hela cancer cell line) | IC50 (U937 cancer cell line) | IC50 (HUT cancer cell line)
20 | CC(OC(C)(C)C)[C@H](NCc1ccc(NC(=O)CCCCCCC(=O)NO)cc1)C(=O)OC1CCCC1 (stereo partly drawn) [Compound 88, (S)-3-tert-Butoxy-2-[4-(7-hydroxycarbamoyl-heptanoylamino)-benzylamino]-butyric acid cyclopentyl ester] | 0.101 to 1 µM | 0.33 to 3.3 µM | < 0.33 µM | 0.33 to 3.3 µM
